tested on: human monocyte stimulated cytokine production (TNF-α); assay: Monocyte assay (LPS-stimulated TNF-α production); format: cell-based; details: 300 nM, human monocytes, LPS
Procedure: Effect of IKK-β inhibition on human monocyte stimulated cytokine production was assessed as follows: Monocytes were isolated from heparinized whole blood by Ficoll gradient, followed by purification of CD14+ cells using MACS magnetic cell separation beads. Isolated monocytes were then adhered to 96-well culture plates at 1×10^6 cells/mL in RPMI 1640 10% FBS (JRH Biosciences, Lenexa Kans.) for 2 h. Test compounds are added to the wells 30 minutes prior to stimulation with a final vehicle concentration of 0.1% DMSO. Monocytes were activated by the addition of 200 ng/mL endotoxin (LPS; E. coli serotype 026:B6) (Sigma, St. Louis, Mo.) and incubated for 24 hrs at 37 C. Cell-free supernates were analyzed by Alphascreen™ (Perkin Elmer, Waltham, Mass.) for TNF-α using R&D Systems matched pair Abs. Viability of the cells was determined by 10% trypan blue exclusion.

| SMILES | inhibition at 0.3 µM |
| --- | --- |
| NC(=O)c1cc(-c2csc(CN3CCCCCC3)c2)cc2c(C3CCS(=O)(=O)C3)c[nH]c12 (stereo not shown) [Example 186, 3-(1,1-Dioxidotetrahydro-3-thienyl)-5-[5-(hexahydro-1H-azepin-1-ylmethyl)-3-thienyl]-1H-indole-7-carboxamide] | 0 to 100% |
| NC(=O)c1cc(-c2ccccc2)cc2c(C3CCCS(=O)(=O)C3)c[nH]c12 (stereo not shown) [Example 221, 3-(1,1-Dioxidotetrahydro-2H-thiopyran-3-yl)-5-phenyl-1H-indole-7-carboxamide] | 0 to 100% |
| NC(=O)c1cc(-c2ccc(F)cc2)cc2c(C3CCCS(=O)(=O)C3)c[nH]c12 (stereo not shown) [Example 220, 3-(1,1-Dioxidotetrahydro-2H-thiopyran-3-yl)-5-(4-fluorophenyl)-1H-indole-7-carboxamide] | 0 to 100% |
| NC(=O)c1cc(-c2csc(CN3CCC3)c2)cc2c(C3CCS(=O)(=O)CC3)c[nH]c12 [Example 70, 5-[5-(1-Azetidinylmethyl)-3-thienyl]-3-(1,1-dioxidotetrahydro-2H-thiopyran-4-yl)-1H-indole-7-carboxamide] | 0 to 100% |

same assay, conditions: human CD14+ monocytes, 200 ng/mL LPS, 24 hrs, values given as 'about', read-out: pIC50 in the monocyte assay (converted)

| IC50 | SMILES |
| --- | --- |
| 5.01 to 1000 nM | CC1(C)CC(c2c[nH]c3c(C(N)=O)cc(-c4ccoc4)cc23)CCS1(=O)=O (stereo not shown) [Example 228, 3-(2,2-Dimethyl-1,1-dioxidotetrahydro-2H-thiopyran-4-yl)-5-(3-furanyl)-1H-indole-7-carboxamide] |
| > 1000 nM | Cc1n[nH]c(C)c1-c1cc(C(N)=O)c2[nH]cc(C3CCS(=O)(=O)CC3)c2c1 [Example 140, 5-(3,5-Dimethyl-1H-pyrazol-4-yl)-3-(1,1-dioxidotetrahydro-2H-thiopyran-4-yl)-1H-indole-7-carboxamide] |
| 5.01 to 1000 nM | COC(=O)c1cc(-c2ccc(F)cc2)cc2c([C@@H]3CCSC3)c[nH]c12 [Example 172, Methyl 5-(4-fluorophenyl)-3-[(3S)-tetrahydro-3-thienyl]-1H-indole-7-carboxylate] |
| 5.01 to 1000 nM | CN(C)Cc1cc(-c2cc(C(N)=O)c3[nH]cc(C4CCS(=O)(=O)C(C)(C)C4)c3c2)cs1 (stereo not shown) [Example 232, 5-{5-[(Dimethylamino)methyl]-3-thienyl}-3-(2,2-dimethyl-1,1-dioxidotetrahydro-2H-thiopyran-4-yl)-1H-indole-7-carboxamide] |
| 5.01 to 1000 nM | NC(=O)c1cc(-c2ccco2)cc2c(C3CCCS(=O)(=O)C3)c[nH]c12 (stereo not shown) [Example 218, 3-(1,1-Dioxidotetrahydro-2H-thiopyran-3-yl)-5-(2-furanyl)-1H-indole-7-carboxamide] |
| 5.01 to 1000 nM | CC1(C)CC(c2c[nH]c3c(C(N)=O)cc(-c4ccccc4)cc23)CCS1(=O)=O (stereo not shown) [Example 226, 3-(2,2-Dimethyl-1,1-dioxidotetrahydro-2H-thiopyran-4-yl)-5-phenyl-1H-indole-7-carboxamide] |
| 5.01 to 1000 nM | NC(=O)c1cc(-c2csc(CN3CCCC3)c2)cc2c(C3CC4CCC(C3)S4(=O)=O)c[nH]c12 (stereo not drawn) [Example 205, 3-[(3-endo)-8,8-Dioxido-8-thiabicyclo[3.2.1]oct-3-yl]-5-[5-(1-pyrrolidinylmethyl)-3-thienyl]-1H-indole-7-carboxamide] |
| 5.01 to 1000 nM | N#CCc1ccc(-c2cc(C(N)=O)c3[nH]cc(C4CCS(=O)(=O)CC4)c3c2)cc1 [Example 65, 5-[4-(Cyanomethyl)phenyl]-3-(1,1-dioxidotetrahydro-2H-thiopyran-4-yl)-1H-indole-7-carboxamide] |
| 5.01 to 1000 nM | NC(=O)c1cc(-c2csc(CN3CCCCCC3)c2)cc2c(CC3CCS(=O)(=O)CC3)c[nH]c12 [Example 258, 3-[(1,1-dioxidotetrahydro-2H-thiopyran-4-yl)methyl]-5-[5-(hexahydro-1H-azepin-1-ylmethyl)-3-thienyl]-1H-indole-7-carboxamide] |
| 5.01 to 1000 nM | NC(=O)c1cc(-c2ccccc2)cc2c(C3CCCS(=O)(=O)CC3)c[nH]c12 (stereo not shown) [Example 212, 3-(1,1-Dioxido-4-thiepanyl)-5-phenyl-1H-indole-7-carboxamide] |
| 5.01 to 1000 nM | CNCc1cccc(-c2cc(C(N)=O)c3[nH]cc(C4CCS(=O)(=O)CC4)c3c2)c1 [Example 78, 3-(1,1-Dioxidotetrahydro-2H-thiopyran-4-yl)-5-{3-[(methylamino)methyl]phenyl}-1H-indole-7-carboxamide] |
| 5.01 to 1000 nM | NC(=O)c1cc(-c2cccs2)cc2c([C@H]3CCS(=O)(=O)[C@@H](c4ccccc4)C3)c[nH]c12 (racemic) [Example 249, 3-(1,1-Dioxido-2-cis-phenyltetrahydro-2H-thiopyran-4-yl)-5-(2-thienyl)-1H-indole-7-carboxamide] |
| 5.01 to 1000 nM | COCc1ccc(-c2cc(C(N)=O)c3[nH]cc(C4CCS(=O)(=O)CC4)c3c2)s1 [Example 98, 3-(1,1-Dioxidotetrahydro-2H-thiopyran-4-yl)-5-{5-[(methyloxy)methyl]-2-thienyl}-1H-indole-7-carboxamide] |
| 5.01 to 1000 nM | CN(C)c1ccc(-c2cc(C(N)=O)c3[nH]cc(C4CCS(=O)(=O)CC4)c3c2)cn1 [Example 67, 5-[6-(Dimethylamino)-3-pyridinyl]-3-(1,1-dioxidotetrahydro-2H-thiopyran-4-yl)-1H-indole-7-carboxamide] |
| 5.01 to 1000 nM | NC(=O)c1cc(-c2csc(CCCO)c2)cc2c(C3CCS(=O)(=O)CC3)c[nH]c12 [Example 84, 3-(1,1-Dioxidotetrahydro-2H-thiopyran-4-yl)-5-[5-(3-hydroxypropyl)-3-thienyl]-1H-indole-7-carboxamide] |
| 5.01 to 1000 nM | NC(=O)c1cc(-c2csc(CN3CCC3)c2)cc2c(C3CCS(=O)(=O)C3)c[nH]c12 (stereo not shown) [Example 185, 5-[5-(1-Azetidinylmethyl)-3-thienyl]-3-(1,1-dioxidotetrahydro-3-thienyl)-1H-indole-7-carboxamide] |
| 5.01 to 1000 nM | CC1(C)CC(c2c[nH]c3c(C(N)=O)cc(-c4ccsc4)cc23)CCS1(=O)=O (stereo not shown) [Example 227, 3-(2,2-Dimethyl-1,1-dioxidotetrahydro-2H-thiopyran-4-yl)-5-(3-thienyl)-1H-indole-7-carboxamide] |
| 5.01 to 1000 nM | NC(=O)c1cc(-c2cccs2)cc2c(C3CCS(=O)(=O)C3)c[nH]c12 (stereo not shown) [Example 190, 3-(1,1-Dioxidotetrahydro-3-thienyl)-5-(2-thienyl)-1H-indole-7-carboxamide] |
| 5.01 to 1000 nM | NC(=O)c1cc(-c2ccsc2)cc2c(C3CCCS(=O)(=O)C3)c[nH]c12 (stereo not shown) [Example 219, 3-(1,1-Dioxidotetrahydro-2H-thiopyran-3-yl)-5-(3-thienyl)-1H-indole-7-carboxamide] |
| 5.01 to 1000 nM | NC(=O)c1cc(-c2ccccc2)cc2c([C@H]3CCS(=O)(=O)[C@@H](c4ccccc4)C3)c[nH]c12 (racemic) [Example 252, 3-(1,1-Dioxido-2-phenyltetrahydro-2H-thiopyran-4-yl)-5-phenyl-1H-indole-7-carboxamide] |
| 5.01 to 1000 nM | CN(C)Cc1cc(-c2cc(C(N)=O)c3[nH]cc(CC4CCS(=O)(=O)C4)c3c2)cs1 (stereo not shown) [Example 261, 5-{5-[(Dimethylamino)methyl]-3-thienyl}-3-[(1,1-dioxidotetrahydro-3-thienyl)methyl]-1H-indole-7-carboxamide] |
| 5.01 to 1000 nM | NC(=O)c1cc(-c2ccco2)cc2c(C3CCS(=O)(=O)C3)c[nH]c12 (stereo not shown) [Example 188, 3-(1,1-Dioxidotetrahydro-3-thienyl)-5-(2-furanyl)-1H-indole-7-carboxamide] |
| 5.01 to 1000 nM | NC(=O)c1cc(-c2csc(CC3CC3)c2)cc2c(C3CCS(=O)(=O)CC3)c[nH]c12 [Example 97, 5-[5-(Cyclopropylmethyl)-3-thienyl]-3-(1,1-dioxidotetrahydro-2H-thiopyran-4-yl)-1H-indole-7-carboxamide] |
| 5.01 to 1000 nM | NC(=O)c1cc(-c2ccnc(Cl)c2)cc2c(C3CCS(=O)(=O)CC3)c[nH]c12 [Example 68, 5-(2-Chloro-4-pyridinyl)-3-(1,1-dioxidotetrahydro-2H-thiopyran-4-yl)-1H-indole-7-carboxamide] |
| 5.01 to 1000 nM | NC(=O)c1cc(-c2csc(CN3CCCCCC3)c2)cc2c(C3CCS(=O)(=O)CC3)c[nH]c12 [Example 72, 3-(1,1-Dioxidotetrahydro-2H-thiopyran-4-yl)-5-[5-(hexahydro-1H-azepin-1-ylmethyl)-3-thienyl]-1H-indole-7-carboxamide] |
| 5.01 to 1000 nM | NC(=O)c1cc(-c2nccs2)cc2c(C3CCS(=O)(=O)CC3)c[nH]c12 [Example 85, 3-(1,1-Dioxidotetrahydro-2H-thiopyran-4-yl)-5-(1,3-thiazol-2-yl)-1H-indole-7-carboxamide] |
| 5.01 to 1000 nM | CC1(C)CC(c2c[nH]c3c(C(N)=O)cc(-c4ccc(CN5CCCC5)s4)cc23)CCS1(=O)=O (stereo not shown) [Example 235, 3-(2,2-Dimethyl-1,1-dioxidotetrahydro-2H-thiopyran-4-yl)-5-[5-(1-pyrrolidinylmethyl)-2-thienyl]-1H-indole-7-carboxamide] |
| 5.01 to 1000 nM | CC(C)N(C)Cc1cc(-c2cc(C(N)=O)c3[nH]cc(C4CCS(=O)(=O)CC4)c3c2)cs1 [Example 74, 3-(1,1-Dioxidotetrahydro-2H-thiopyran-4-yl)-5-(5-{[methyl(1-methylethyl)amino]methyl}-3-thienyl)-1H-indole-7-carboxamide] |
| 5.01 to 1000 nM | NC(=O)c1cc(-c2ccc(F)cc2)cc2c(C3CCS(=O)(=O)C3)c[nH]c12 (racemic) [Example 171, (rac)-3-(1,1-Dioxidotetrahydro-3-thienyl)-5-(4-fluorophenyl)-1H-indole-7-carboxamide] |
| 5.01 to 1000 nM | COCCN(C)Cc1cc(-c2cc(C(N)=O)c3[nH]cc(C4CCS(=O)(=O)CC4)c3c2)cs1 [Example 71, 3-(1,1-Dioxidotetrahydro-2H-thiopyran-4-yl)-5-[5-({methyl[2-(methyloxy)ethyl]amino}methyl)-3-thienyl]-1H-indole-7-carboxamide] |

From patent US8071584B2 (GlaxoSmithKline LLC, priority 2007, dated 2011)
